Values after ≈ are worked out from the molar mass of the structure shown. Read-outs that look alike come from different tables or passages of the source.
Columns and labels:
Assay type in all cases: cell-based
[1] = test system: P. aeruginosa NB52019 (wild-type PAO1); experiment: MIC, broth microdilution (CLSI)
[2] = test system: S. aureus ATCC 29213 (NB01001); experiment: MIC, broth microdilution (CLSI); conditions: Staphylococcus aureus, read-out: Antibacterial activity (MIC) NB01001
[3] = test system: P. aeruginosa NB52023-CDK0006 (gyrA T83I, parC S87L); experiment: microbe, parasite or virus in culture; conditions: Pseudomonas aeruginosa, 20 h, read-out: Antibacterial activity (MIC) NB52023-CDK0006
[4] = test system: S. aureus NB01006-AVR005 (gyrA S84L, grlA S80F, grlB E471K); experiment: microbe, parasite or virus in culture; conditions: Staphylococcus aureus, 20 h, read-out: Antibacterial activity (MIC) NB01006-AVR005
[5] = test system: E. coli ATCC 25922 (NB27001); experiment: MIC, broth microdilution (CLSI); conditions: Escherichia coli, read-out: Antibacterial activity (MIC) NB27001
[6] = test system: P. aeruginosa NB52023 (efflux deficient K1542, ΔmexX ΔmexB); experiment: microbe, parasite or virus in culture; conditions: Pseudomonas aeruginosa, 20 h, read-out: Antibacterial activity (MIC) NB52023
[7] = test system: E. coli NB27177 (efflux deficient CGSC 11430, ΔtolC732::kan); experiment: microbe, parasite or virus in culture; conditions: Escherichia coli, 20 h, read-out: Antibacterial activity (MIC) NB27177
[8] = Pseudomonas aeruginosa, PAO1, 20 h; read-out: Antibacterial activity (MIC) NB52019
[9] = ATCC29213, S. aureus ATCC 29213, 35° C., 20 hours
[10] = ATCC25922, E. coli ATCC 25922, 35° C., 20 hours

Structure (SMILES) | MIC [1, 8] | MIC [2, 9] | MIC [3] | MIC [4] | MIC [5, 10] | MIC [6] | MIC [7] | MIC ([1]; Pseudomonas aeruginosa, PAO1, 20 h, read-out: Antibacterial activity (MIC) NB52019) | MIC ([2]; ATCC29213, 20 h) | MIC ([5]; ATCC25922, 20 h)
Cc1c(N2CC[C@@H]([C@H](C)N)C2)c(F)cc2c(C(=N)NO)cc(=O)n(C3CC3)c12 [Example 40, 7-((R)-3-((S)-1-aminoethyl)pyrrolidin-1-yl)-1-cyclopropyl-6-fluoro-N-hydroxy-8-methyl-2-oxo-1,2-dihydroquinoline-4-carboximidamide] | 16 µg/mL (≈ 41.3 µM) | 4 µg/mL (≈ 10.3 µM) | 8 µg/mL (≈ 20.6 µM) | 4 µg/mL (≈ 10.3 µM) | 4 µg/mL (≈ 10.3 µM) | 4 µg/mL (≈ 10.3 µM) | 0.5 µg/mL (≈ 1.29 µM) |  |  | 
Cc1c(N2CC[C@@H]([C@H](C)N)C2)c(F)cc2c(C3=NOS(=O)N3)cc(=O)n(C3CC3)c12 (stereo partly drawn) [Example 41, 7-((R)-3-((S)-1-aminoethyl)pyrrolidin-1-yl)-1-cyclopropyl-6-fluoro-8-methyl-4-(2-oxido-3H-1,2,3,5-oxathiadiazol-4-yl)quinolin-2(1H)-one] | 16 µg/mL (≈ 36.9 µM) | 0.5 µg/mL (≈ 1.15 µM) | 8 µg/mL (≈ 18.5 µM) | 0.5 µg/mL (≈ 1.15 µM) | 4 µg/mL (≈ 9.23 µM) | 4 µg/mL (≈ 9.23 µM) | 0.125 µg/mL (≈ 0.288 µM) |  |  | 
Cc1c(N2CC[C@@H]([C@H](C)N)C2)c(F)cc2c(Cl)cc(=O)n(C3CC3)c12 [Example 44, 7-((R)-3-((S)-1-aminoethyl)pyrrolidin-1-yl)-4-chloro-1-cyclopropyl-6-fluoro-8-methylquinolin-2(1H)-one] | 8 µg/mL (≈ 22 µM) | 0.06 µg/mL (≈ 0.165 µM) | 8 µg/mL (≈ 22 µM) | 0.03 µg/mL (≈ 0.0824 µM) | 2 µg/mL (≈ 5.5 µM) | 4 µg/mL (≈ 11 µM) | 0.03 µg/mL (≈ 0.0824 µM) |  |  | 
CC(=O)NCc1cc(=O)n(C2CC2)c2c(C)c(N3CC[C@@H]([C@H](C)N)C3)c(F)cc12 [Example 46, N-((7-((R)-3-((S)-1-aminoethyl)pyrrolidin-1-yl)-1-cyclopropyl-6-fluoro-8-methyl-2-oxo-1,2-dihydroquinolin-4-yl)methyl)acetamide] | 32 µg/mL (≈ 79.9 µM) | 8 µg/mL (≈ 20 µM) | > 32 µg/mL | 2 µg/mL (≈ 4.99 µM) | 32 µg/mL (≈ 79.9 µM) | > 32 µg/mL | 2 µg/mL (≈ 4.99 µM) |  |  | 
Cc1c(N2CC[C@@H]([C@H](C)N)C2)c(F)cc2c(CO)cc(=O)n(C3CC3)c12 [Example 47, 7-((R)-3-((S)-1-aminoethyl)pyrrolidin-1-yl)-1-cyclopropyl-6-fluoro-4-(hydroxymethyl)-8-methylquinolin-2(1H)-one] | 16 µg/mL (≈ 44.5 µM) | 0.25 µg/mL (≈ 0.696 µM) | 8 µg/mL (≈ 22.3 µM) | 0.25 µg/mL (≈ 0.696 µM) | 16 µg/mL (≈ 44.5 µM) | 4 µg/mL (≈ 11.1 µM) | 0.25 µg/mL (≈ 0.696 µM) |  |  | 
COCc1cc(=O)n(C2CC2)c2c(C)c(N3CC[C@@H]([C@H](C)N)C3)c(F)cc12 [Example 48, 7-((R)-3-((S)-1-aminoethyl)pyrrolidin-1-yl)-1-cyclopropyl-6-fluoro-4-(methoxymethyl)-8-methylquinolin-2(1H)-one] | 32 µg/mL (≈ 85.7 µM) | 0.125 µg/mL (≈ 0.335 µM) | 16 µg/mL (≈ 42.8 µM) | 0.125 µg/mL (≈ 0.335 µM) | 8 µg/mL (≈ 21.4 µM) | 16 µg/mL (≈ 42.8 µM) | 0.06 µg/mL (≈ 0.161 µM) |  |  | 
Cc1c(N2CC[C@@H]([C@H](C)N)C2)c(F)cc2c(OCCN(C)C)cc(=O)n(C3CC3)c12 [Example 49, 7-((R)-3-((S)-1-aminoethyl)pyrrolidin-1-yl)-1-cyclopropyl-4-(2-(dimethylamino)ethoxy)-6-fluoro-8-methylquinolin-2(1H)-one] |  |  | 8 µg/mL (≈ 19.2 µM) | 0.25 µg/mL (≈ 0.6 µM) |  | 4 µg/mL (≈ 9.6 µM) | 0.06 µg/mL (≈ 0.144 µM) | 8 µg/mL (≈ 19.2 µM) | 0.125 µg/mL (≈ 0.3 µM) | 1 µg/mL (≈ 2.4 µM)
CC(=O)N[C@@H](C)[C@@H]1CCN(c2c(F)cc3c(OCCN(C)C)cc(=O)n(C4CC4)c3c2C)C1 [Example 50, N—((S)-1-((R)-1-(1-cyclopropyl-4-(2-(dimethylamino)ethoxy)-6-fluoro-8-methyl-2-oxo-1,2-dihydroquinolin-7-yl)pyrrolidin-3-yl)ethyl)acetamide] | > 32 µg/mL | 1 µg/mL (≈ 2.18 µM) | > 32 µg/mL | 2 µg/mL (≈ 4.36 µM) | 32 µg/mL (≈ 69.8 µM) | > 32 µg/mL | 0.125 µg/mL (≈ 0.273 µM) |  |  | 
Cc1c(N2CC[C@@H]([C@H](C)N)C2)c(F)cc2c(OCCN)cc(=O)n(C3CC3)c12 [Example 51, 4-(2-aminoethoxy)-7-((R)-3-((S)-1-aminoethyl)pyrrolidin-1-yl)-1-cyclopropyl-6-fluoro-8-methylquinolin-2(1H)-one] | 4 µg/mL (≈ 10.3 µM) | 0.5 µg/mL (≈ 1.29 µM) | 2 µg/mL (≈ 5.15 µM) | 0.5 µg/mL (≈ 1.29 µM) | 2 µg/mL (≈ 5.15 µM) | 2 µg/mL (≈ 5.15 µM) | 0.06 µg/mL (≈ 0.154 µM) |  |  | 
Cc1c(N2CC[C@@H]([C@H](C)N)C2)c(F)cc2c(OCCNC(=N)N)cc(=O)n(C3CC3)c12 [Example 53, 1-(2-((7-((R)-3-((S)-1-aminoethyl)pyrrolidin-1-yl)-1-cyclopropyl-6-fluoro-8-methyl-2-oxo-1,2-dihydroquinolin-4-yl)oxy)ethyl)guanidine] | 16 µg/mL (≈ 37.2 µM) | 0.5 µg/mL (≈ 1.16 µM) | 4 µg/mL (≈ 9.29 µM) | 0.5 µg/mL (≈ 1.16 µM) | 4 µg/mL (≈ 9.29 µM) | 4 µg/mL (≈ 9.29 µM) | 0.125 µg/mL (≈ 0.29 µM) |  |  | 
CC(=O)NCCOc1cc(=O)n(C2CC2)c2c(C)c(N3CC[C@@H]([C@H](C)N)C3)c(F)cc12 [Example 54, N-(2-((7-((R)-3-((S)-1-aminoethyl)pyrrolidin-1-yl)-1-cyclopropyl-6-fluoro-8-methyl-2-oxo-1,2-dihydroquinolin-4-yl)oxy)ethyl)acetamide] | 32 µg/mL (≈ 74.3 µM) | 8 µg/mL (≈ 18.6 µM) | > 32 µg/mL | 4 µg/mL (≈ 9.29 µM) | 32 µg/mL (≈ 74.3 µM) | > 32 µg/mL | 4 µg/mL (≈ 9.29 µM) |  |  | 
Cc1c(N2CC[C@H](O)C2)c(F)cc2c(OCCN(C)C)cc(=O)n(C3CC3)c12 [Example 55, (S)-1-cyclopropyl-4-(2-(dimethylamino)ethoxy)-6-fluoro-7-(3-hydroxypyrrolidin-1-yl)-8-methylquinolin-2(1H)-one] | > 32 µg/mL | 0.5 µg/mL (≈ 1.28 µM) | 32 µg/mL (≈ 82.2 µM) | 0.5 µg/mL (≈ 1.28 µM) | 8 µg/mL (≈ 20.5 µM) | 32 µg/mL (≈ 82.2 µM) | 0.125 µg/mL (≈ 0.321 µM) |  |  | 
Cc1c(N2CC[C@@H]([C@H](C)N)C2)c(F)cc2c(OCC(N)=O)cc(=O)n(C3CC3)c12 [Example 56, 2-((7-((R)-3-((S)-1-aminoethyl)pyrrolidin-1-yl)-1-cyclopropyl-6-fluoro-8-methyl-2-oxo-1,2-dihydroquinolin-4-yl)oxy)acetamide] | > 32 µg/mL | 4 µg/mL (≈ 9.94 µM) | > 32 µg/mL | 4 µg/mL (≈ 9.94 µM) | 32 µg/mL (≈ 79.5 µM) | 16 µg/mL (≈ 39.8 µM) | 2 µg/mL (≈ 4.97 µM) |  |  | 
Cc1c(N2CC[C@@H]([C@H](C)N)C2)c(F)cc2c(OCCCC#N)cc(=O)n(C3CC3)c12 [Example 57, 4-((7-((R)-3-((S)-1-aminoethyl)pyrrolidin-1-yl)-1-cyclopropyl-6-fluoro-8-methyl-2-oxo-1,2-dihydroquinolin-4-yl)oxy)butanenitrile] | > 32 µg/mL | 0.25 µg/mL (≈ 0.606 µM) | > 32 µg/mL | 0.25 µg/mL (≈ 0.606 µM) | 32 µg/mL (≈ 77.6 µM) | 16 µg/mL (≈ 38.8 µM) | 0.25 µg/mL (≈ 0.606 µM) |  |  | 
Cc1c(N2CC[C@@H]([C@H](C)N)C2)c(F)cc2c(OCCC/C(N)=N\O)cc(=O)n(C3CC3)c12 [Example 58, 4-((7-((R)-3-((S)-1-aminoethyl)pyrrolidin-1-yl)-1-cyclopropyl-6-fluoro-8-methyl-2-oxo-1,2-dihydroquinolin-4-yl)oxy)-N′-hydroxybutanimidamide] | > 32 µg/mL | 4 µg/mL (≈ 8.98 µM) | 32 µg/mL (≈ 71.8 µM) | 2 µg/mL (≈ 4.49 µM) | 32 µg/mL (≈ 71.8 µM) | 32 µg/mL (≈ 71.8 µM) | 1 µg/mL (≈ 2.24 µM) |  |  | 
Cc1c(N2CC[C@@H]([C@H](C)N)C2)c(F)cc2c(OCCCC(=O)NO)cc(=O)n(C3CC3)c12 [Example 60, 4-((7-((R)-3-((S)-1-aminoethyl)pyrrolidin-1-yl)-1-cyclopropyl-6-fluoro-8-methyl-2-oxo-1,2-dihydroquinolin-4-yl)oxy)-N-hydroxybutanamide] | > 32 µg/mL | 8 µg/mL (≈ 17.9 µM) | > 32 µg/mL | 4 µg/mL (≈ 8.96 µM) | 32 µg/mL (≈ 71.7 µM) | > 32 µg/mL | 1 µg/mL (≈ 2.24 µM) |  |  | 
Cc1c(N2CC[C@@H]([C@H](C)N)C2)c(F)cc2c(OCCCC(=O)O)cc(=O)n(C3CC3)c12 [Example 61, 4-((7-((R)-3-((S)-1-aminoethyl)pyrrolidin-1-yl)-1-cyclopropyl-6-fluoro-8-methyl-2-oxo-1,2-dihydroquinolin-4-yl)oxy)butanoic acid] | 32 µg/mL (≈ 74.2 µM) | > 32 µg/mL | > 32 µg/mL | > 32 µg/mL | 32 µg/mL (≈ 74.2 µM) | > 32 µg/mL | > 32 µg/mL |  |  | 
Cc1c(N2CC[C@@H]([C@H](C)N)C2)c(F)cc2c(OCCCc3n[nH]c(=O)o3)cc(=O)n(C3CC3)c12 [Example 65, 5-(3-((7-((R)-3-((S)-1-aminoethyl)pyrrolidin-1-yl)-1-cyclopropyl-6-fluoro-8-methyl-2-oxo-1,2-dihydroquinolin-4-yl)oxy)propyl)-1,3,4-oxadiazol-2(3H)-one] | > 32 µg/mL | 4 µg/mL (≈ 8.48 µM) | > 32 µg/mL | 2 µg/mL (≈ 4.24 µM) | 32 µg/mL (≈ 67.9 µM) | > 32 µg/mL | 4 µg/mL (≈ 8.48 µM) |  |  | 

— patent US10160726B2, “Quinolone derivatives as antibacterials” (priority 2014, dated 2018)
